This assay addresses CDK2/Cyclin E kinase (Homo sapiens, UniProt P24941). The assay is described as follows: CDK2/Cyclin E Flashplate Assay: 96-Well Format. Type of assay: biochemical. Particulars: streptavidin-coated flashplate; biotinylated-Rb peptide substrate 10 μM; 33P-ATP/ATP 1 μM; CDK2/Cyclin E 20 nM; 30 minutes at 30° C.; 1% DMSO. The method, then: Functional Measurements for Determination of IC50-Values
CDK2/Cyclin E Flashplate Assay: 96-Well Format
A 96-well streptavidin-coated flashplate was used to assay potency of compounds according formula (I) against CDK2/Cyclin E kinase. To carry out the assay, biotinylated-Rb peptide substrate (Biotin-[…]-OH) was solubilized at 1 mM in kinase buffer (Hepes 50 mM, NaCl 1 mM, MgCl2 5 mM pH 7.5) as a stock solution conserved at −20° C. in aliquots of 110 μl. The day of the experiment, an aliquot of this solution was thawed and diluted to 14.3 μM in kinase buffer, containing 1 mM dithiothreitol (DTT) added in the buffer at the same time.
70 μl of this solution was added in each well of the flashplate in order to achieve a final concentration of 10 μM (100 μl reactionnal volume). Serial dilutions of inhibitors were prepared in DMSO from 10 mM stock solutions in order to achieve 1000 μM, 333.3 μM, 111.1 μM, 37.03 μM, 12.35 μM, 4.11 μM and 1.37 μM and all were rediluted in kinase buffer+DTT in order to achieve 100 μM, 33.3 μM, 11.1 μM, 3.7 μM, 1.24 μM, 0.41 μM and 0.14 μM in DMSO 10% buffer (vol/vol). 10 μl of each, of these solutions (or 10 μl of buffer+DTT for controls) were transferred to the testplate wells in order to achieve 10 μM, 3.33 μM, 1.11 μM, 0.37 μM, 0.12 μM, 0.04. μM and 0.01 μM as final concentrations, 1% DMSO (vol/vol). In each well, 10 μl of a solution of a mix of ^33PyATP/ATP were added in order to achieve 1 μM final concentration and a total of 1 μCi. The kinase reaction was initiated by addition of 10 μl of a solution at 200 nM of CDK2/Cyclin E in kinase buffer+DTT (or buffer+DTT for blanks) in order to achieve 20 nM final concentration. After addition of each reagent, the test-plate was shakened. The plates were incubated 30 minutes at 30° C. with a shaking at 650 rpm. At the end of the incubation, the plates were washed 3 times with 300 μl of PBS (without calcium and magnesium) per well. The incorporation of ^33P to the peptide was measured by scintillation counting.
Turning to `O=C(NCc1ccc(Cl)cc1Cl)c1cc(-c2ccncc2)n[nH]c1=O` [Example 2, N-(2,4-dichlorobenzyl)-3-oxo-6-pyridin-4-yl-2,3-dihydropyridazine-4-carboxamide], the IC50 – broadly, the concentration that inhibits the measured activity by half – turned out to be 905 nM.
With `O=C(NCc1ccc(Cl)cc1)c1cc(-c2ccncc2)n[nH]c1=O` [Example 4, N-(4-chlorobenzyl)-3-oxo-6-pyridin-4-yl-2,3-dihydropyridazine-4-carboxamide-6] the figure was 577 nM; with `CCOC(=O)CCNC(=O)c1cc(-c2ccncc2)n[nH]c1=O` [Example 13, Ethyl 3-[(3-oxo-6-pyridin-4-yl-2,3-dihydropyridazine-4-carbonyl)amino]propionate], 764 nM.
As to `O=C(NCc1ccc(Cl)c(Cl)c1)c1cc(-c2ccncc2)n[nH]c1=O` [Example 16, N-(3,4-dichlorobenzyl)-3-oxo-6-pyridin-4-yl-2,3-dihydropyridazine-4-carboxamide], half-maximal inhibition (IC50) was put at 174 nM.
In turn, `O=C(NCc1ccc(O)cc1)c1cc(-c2ccncc2)n[nH]c1=O` [Example 18, N-(4-hydroxybenzyl)-3-oxo-6-pyridin-4-yl-2,3-dihydropyridazine-4-arboxamide] had an IC50 of 536 nM.
On to `O=C(NCCCCO)c1cc(-c2ccncc2)n[nH]c1=O` [Example 31, 3-Oxo-6-pyridin-4-yl-2,3-dihydro-pyridazine-4-carboxylic acid (4-hydroxy-butyl)-amide], for which half-maximal inhibition (IC50) was put at 581 nM.
Next, `CNc1nccc(-c2cc(C(=O)NCc3ccc(Cl)cc3)c(=O)[nH]n2)n1` [Example 34, 6-(2-Methylamino-pyrimidin-4-yl)-3-oxo-2,3-dihydro-pyridazine-4-carboxylic acid 4-chloro-benzylamide]: 30 nM; `O=C(NCc1ccc(Cl)cc1)c1cc(-c2cn[nH]c2)n[nH]c1=O` [Example 39, 3-Oxo-6-(1H-pyrazol-4-yl)-2,3-dihydro-pyridazine-4-carboxylic acid 4-chloro-benzylamide]: 344 nM.
On to `O=C(NCc1ccc(Cl)cc1)c1cc(-c2ccc(O)cc2)n[nH]c1=O` [Example 40, 6-(4-Hydroxy-phenyl)-3-oxo-2,3-dihydro-pyridazine-4-carboxylicacid 4-chloro-benzylamide], for which inhibition was half-maximal at 119 nM (IC50).
`COc1cc(-c2cc(C(=O)NCc3ccc(Cl)cc3)c(=O)[nH]n2)ccc1O` [Example 41, 6-(4-Hydroxy-3-methoxy-phenyl)-3-oxo-2,3-dihydro-pyridazine-4-carboxylic acid 4-chloro-benzylamide]: the IC50 stood at 147 nM.
In the case of `COc1cc(-c2cc(C(=O)NCCCc3cccnc3)c(=O)[nH]n2)ccc1O` [Example 49, 6-(4-Hydroxy-3-methoxy-phenyl)-3-oxo-2,3-dihydro-pyridazine-4-carboxylic acid (3-pyridin-3-yl-propyl)-amide], the IC50 came to 175 nM.
`O=C(NCCCc1ccccc1)c1cc(-c2ccncc2)n[nH]c1=O` [Example 66, 3-Oxo-6-pyridin-4-yl-2,3-dihydro-pyridazine-4-carboxylic acid (3-phenyl-propyl)-amide; compoundwith trifluoro-acetic acid]: inhibition was half-maximal at 521 nM (IC50).
Molecule `O=C(NCc1ccc(Br)cc1)c1cc(-c2ccncc2)n[nH]c1=O` [Example 75, 3-Oxo-6-pyridin-4-yl-2,3-dihydro-pyridazine-4-carboxylic acid 4-bromo-benzylamide; compoundwith trifluoro-acetic acid] had a concentration for half-maximal inhibition (IC50) of 802 nM.
For the molecule `COc1ccc(CNC(=O)c2cc(-c3ccncc3)n[nH]c2=O)cc1` [Example 83, 3-Oxo-6-pyridin-4-yl-2,3-dihydro-pyridazine-4-carboxylic acid 4-methoxy-benzylamide;compound with trifluoro-acetic acid], the IC50 was found to be 552 nM.
`O=C(NCc1ccc2c(c1)OCO2)c1cc(-c2ccncc2)n[nH]c1=O` [Example 84, 3-Oxo-6-pyridin-4-yl-2,3-dihydro-pyridazine-4-carboxylic acid(benzo[1,3]dioxol-5-ylmethyl)-amide;compound with trifluoro-acetic acid] gave an IC50 of 219 nM.
In turn, `O=C(NCc1ccc(F)c(Br)c1)c1cc(-c2ccncc2)n[nH]c1=O` [Example 93, 3-Oxo-6-pyridin-4-yl-2,3-dihydro-pyridazine-4-carboxylic acid 3-bromo-4-fluoro-benzylamide;compound with trifluoro-acetic acid] yielded an IC50 of 349 nM.
Turning to `CS(=O)(=O)c1ccc(CNC(=O)c2cc(-c3ccncc3)n[nH]c2=O)cc1` [Example 98, 3-Oxo-6-pyridin-4-yl-2,3-dihydro-pyridazine-4-carboxylic acid 4-methanesulfonyl-benzylamide; compoundwith trifluoro-acetic acid], the midpoint of inhibition, the IC50, lay at 664 nM. This IC50 is about 1.9-fold higher than that of the molecule before.
In the case of `O=C(NCCc1ccccc1Cl)c1cc(-c2ccncc2)n[nH]c1=O` [Example 103, 3-Oxo-6-pyridin-4-yl-2,3-dihydro-pyridazine-4-carboxylic acid [2-(2-chloro-phenyl)-ethyl]-amide; compound withtrifluoro-acetic acid], inhibition was half-maximal at 164 nM (IC50).
Regarding `O=C(NCc1ccc(C(F)(F)F)cc1)c1cc(-c2ccncc2)n[nH]c1=O` [Example 112, 3-Oxo-6-pyridin-4-yl-2,3-dihydro-pyridazine-4-carboxylic acid 4-trifluoromethyl-benzylamide; compoundwith trifluoro-acetic acid], half-maximal inhibition (IC50) was put at 360 nM.
`O=C(NCc1ccc(Cl)cc1F)c1cc(-c2ccncc2)n[nH]c1=O` [Example 116, 3-Oxo-6-pyridin-4-yl-2,3-dihydro-pyridazine-4-carboxylic acid 4-chloro-2-fluoro-benzylamide;compound with trifluoro-acetic acid] returned an IC50 of 787 nM. Against the preceding molecule, the IC50 is about 2.2-fold higher.
With `O=C(NCc1ccc(F)cc1)c1cc(-c2ccncc2)n[nH]c1=O` [Example 125, 3-Oxo-6-pyridin-4-yl-2,3-dihydro-pyridazine-4-carboxylic acid 4-fluoro-benzylamide; compoundwith trifluoro-acetic acid] the figure was 519 nM; with `Cc1ccc(CNC(=O)c2cc(-c3ccncc3)n[nH]c2=O)s1` [Example 139, 3-Oxo-6-pyridin-4-yl-2,3-dihydro-pyridazine-4-carboxylic acid (5-methyl-thiophen-2-ylmethyl)-amide; compound withtrifluoro-acetic acid], 353 nM.
`O=C(NCc1ccc(Cl)s1)c1cc(-c2ccncc2)n[nH]c1=O` [Example 142, 3-Oxo-6-pyridin-4-yl-2,3-dihydro-pyridazine-4-carboxylic acid (5-chloro-thiophen-2-ylmethyl)-amide; compound withtrifluoro-acetic acid]: the IC50 came to 356 nM. This IC50 and that of the molecule before are within 1.5-fold of each other.
As for `O=C(NCCCc1cccnc1)c1cc(-c2ccc(O)cc2)n[nH]c1=O` [Example 164, 6-(4-Hydroxy-phenyl)-3-oxo-2,3-dihydro-pyridazine-4-carboxylicacid (3-pyridin-3-yl-propyl)-amide], it took 133 nM to reach half-maximal inhibition (IC50).
Turning to `C[C@@H](Nc1nccc(-c2cc(C(=O)NCCCc3cccnc3)c(=O)[nH]n2)n1)c1ccccc1` [Example 167, R-3-Oxo-6-[2-(1-phenyl-ethylamino)-pyrimidin-4-yl]-2,3-dihydro-pyridazine-4-carboxylic acid (3-pyridin-3-yl-propyl)-amide], the midpoint of inhibition, the IC50, lay at 125 nM.

Source of the values: US7462613B2, “Pyridazinone derivatives as pharmaceuticals and pharmaceutical compositions containing them” (SANOFI-AVENTIS Deutschland GmbH, priority 2002, dated 2008).
